Laboratory results reported in patent US20260274832A1, “COMPOUNDS AND THEIR USE IN TREATING CANCER” (ASTRAZENECA AB, priority 2023, published 2026).

Tests used:
[1] = target: T1, AR (AR-full length) in LNCaP cells (Homo sapiens, UniProt P10275, T878A); test: LNCaP Androgen Receptor Imaging Assay (immunofluorescence of endogenous nuclear AR); type: cell-based; conditions: 24 h incubation; for DC50: concentration giving 50% of maximum degradation of AR per curve fit, single experiment or average of two or more; for Dmax: LNCaP, maximum degradation observed, normalized as % of positive control (prior art AR PROTAC at 3 μM)
T1 construct: the prostate cancer cell line LNCaP (expressing AR-full length); endogenous in cells; host or cells: LNCaP
Method in brief: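 LNCaP cells (12,000/well) received a 12-point compound dose series (0.3% DMSO) for 24 h at 37° C., then were PFA-fixed and stained for AR (AR441) and nuclei (DRAQ5). Nuclear AR was quantified by imaging, normalized to a 3 μM AR PROTAC control; DC50 and Dmax came from Hill/bell curve fits.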

[2] = target: T2, AR (L702H) in LNCaP cells (Homo sapiens, UniProt P10275, L702H/T878A); test: LNCaP Androgen Receptor L702H Imaging Assay (LNCaP cells engineered by CRISPR/Cas9); type: cell-based; conditions: LNCaP cells with AR L702H mutation, 24 h incubation; for DC50: concentration giving 50% of maximum degradation of AR (L702H) per curve fit; for Dmax: LNCaP, maximum degradation observed, normalized as % of positive control
T2 construct: engineered to introduce the mutation L702H into the AR gene using CRISPR/Cas9; endogenous in cells; host or cells: LNCaP cells edited by CRISPR/Cas9 at the AR gene
Method in brief: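 CRISPR-engineered LNCaP cells carrying AR L702H were treated 24 h at 37 °C with a 12-point compound dose response (0.3% DMSO), then fixed and immunostained for AR with DRAQ5 nuclear counterstain. Nuclear AR was quantified by imaging, normalized to positive control; DC50 and Dmax came from Hill or bell-shaped fits.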

T2 sequence (P10275 whole entry L702H/T878A): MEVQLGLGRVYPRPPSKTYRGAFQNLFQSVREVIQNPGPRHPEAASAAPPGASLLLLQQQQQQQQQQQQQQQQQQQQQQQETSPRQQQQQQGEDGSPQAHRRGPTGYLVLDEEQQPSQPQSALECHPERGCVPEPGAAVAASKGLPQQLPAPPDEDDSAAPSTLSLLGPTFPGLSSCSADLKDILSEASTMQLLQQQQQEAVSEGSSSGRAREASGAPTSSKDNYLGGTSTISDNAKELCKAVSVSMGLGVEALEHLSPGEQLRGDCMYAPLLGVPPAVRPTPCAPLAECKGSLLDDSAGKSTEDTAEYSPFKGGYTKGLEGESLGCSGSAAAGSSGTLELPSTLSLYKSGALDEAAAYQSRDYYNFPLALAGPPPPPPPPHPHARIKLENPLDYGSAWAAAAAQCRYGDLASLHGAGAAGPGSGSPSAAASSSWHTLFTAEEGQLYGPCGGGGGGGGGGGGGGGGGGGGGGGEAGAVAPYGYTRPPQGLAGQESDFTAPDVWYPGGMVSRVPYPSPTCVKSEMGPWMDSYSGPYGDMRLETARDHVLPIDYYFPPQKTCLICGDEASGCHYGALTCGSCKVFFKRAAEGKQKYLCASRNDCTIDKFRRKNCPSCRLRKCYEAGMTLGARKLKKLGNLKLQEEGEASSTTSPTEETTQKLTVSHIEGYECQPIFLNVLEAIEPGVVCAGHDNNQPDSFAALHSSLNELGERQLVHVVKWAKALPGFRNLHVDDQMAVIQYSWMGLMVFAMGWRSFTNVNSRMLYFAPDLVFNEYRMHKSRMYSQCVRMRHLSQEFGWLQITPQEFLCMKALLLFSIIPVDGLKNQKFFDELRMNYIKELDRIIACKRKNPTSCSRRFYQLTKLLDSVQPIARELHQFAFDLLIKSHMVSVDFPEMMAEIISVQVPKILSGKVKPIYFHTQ
T2 sequence (Q96SW2 whole entry partner): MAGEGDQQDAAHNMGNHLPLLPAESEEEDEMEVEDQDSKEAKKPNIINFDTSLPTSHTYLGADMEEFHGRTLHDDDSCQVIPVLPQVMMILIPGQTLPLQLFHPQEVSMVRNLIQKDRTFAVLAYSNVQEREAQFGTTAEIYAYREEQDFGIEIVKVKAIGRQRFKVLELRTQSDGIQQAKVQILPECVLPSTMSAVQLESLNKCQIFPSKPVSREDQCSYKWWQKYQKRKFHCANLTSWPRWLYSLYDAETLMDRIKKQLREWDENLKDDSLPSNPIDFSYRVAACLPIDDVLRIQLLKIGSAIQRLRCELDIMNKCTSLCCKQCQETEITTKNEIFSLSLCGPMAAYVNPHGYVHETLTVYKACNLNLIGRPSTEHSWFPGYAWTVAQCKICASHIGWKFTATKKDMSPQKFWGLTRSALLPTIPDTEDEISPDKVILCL
T1 sequence (P10275 whole entry T878A): as the sequence (P10275 whole entry L702H/T878A) above, with H702L counted along it
T1 sequence (Q96SW2 whole entry partner): as the sequence (Q96SW2 whole entry partner) above

DC50 [1]	Dmax [1]	DC50 [2]	Dmax [2]	Structure (SMILES)
2 nM	107%	15 nM	40%	N#Cc1c[nH]c2c(N3CCC(NC(=O)c4ncc(N5CCC(CN6CCC(n7ccc8c(N9CCC(=O)NC9=O)cccc87)CC6)CC5)cn4)CC3)ccc(Cl)c12 [Example 177, N-[1-(4-Chloro-3-cyano-1H-indol-7-yl)piperidin-4-yl]-5-[4-({4-[4-(2,4-dioxo-1,3-diazinan-1-yl)-1H-indol-1-yl]piperidin-1-yl}methyl)piperidin-1-yl]pyrimidine-2-carboxamide]
9 nM	92%	7 nM	106%	N#Cc1c[nH]c2c(N3CCC[C@H](c4ccc(N5CCC(CN6CCC(n7ccc8c(N9CCC(=O)NC9=O)cccc87)CC6)CC5)cc4)C3)ccc(Cl)c12 [Example 26, 4-Chloro-7-[(3R)-3-{4-[4-({4-[4-(2,4-dioxo-1,3-diazinan-1-yl)-1H-indol-1-yl]piperidin-1-yl}methyl)piperidin-1-yl]phenyl}piperidin-1-yl]-1H-indole-3-carbonitrile]
6 nM	100%	18 nM	83%	N#Cc1c[nH]c2c(N3CCC[C@@H](c4ccc(N5CCC(CN6CCN(c7ccc8c(c7)CN(C7CCC(=O)NC7=O)C8=O)CC6)CC5)cc4)C3)ccc(F)c12 (stereo partly drawn) [Example 24, 7-[(3S)-3-{4-[4-({4-[2-(2,6-dioxopiperidin-3-yl)-1-oxo-2,3-dihydro-1H-isoindol-5-yl]piperazin-1-yl}methyl)piperidin-1-yl]phenyl}piperidin-1-yl]-4-fluoro-1H-indole-3-carbonitrile]
10 nM	104%	14 nM	108%	Cn1c(C2CCN(CC3CCN(c4ccc([C@H]5CCCN(c6ccc(Cl)c7c(C#N)c[nH]c67)C5)cc4)CC3)CC2)cc2cc(F)c(N3CCC(=O)NC3=O)cc21 [Example 136, 4-Chloro-7-[(3R)-3-{4-[4-({4-[6-(2,4-dioxo-1,3-diazinan-1-yl)-5-fluoro-1-methyl-1H-indol-2-yl]piperidin-1-yl}methyl)piperidin-1-yl]phenyl}piperidin-1-yl]-1H-indole-3-carbonitrile]
7 nM	104%	34 nM	102%	N#Cc1c[nH]c2c(N3CCC(c4ccc(N5CCC(CN6CCC(n7ccc8c(N9CCC(=O)NC9=O)cccc87)CC6)CC5)nc4)CC3)ccc(Cl)c12 [Example 108, 4-Chloro-7-(4-{6-[4-({4-[4-(2,4-dioxo-1,3-diazinan-1-yl)-1H-indol-1-yl]piperidin-1-yl}methyl)piperidin-1-yl]pyridin-3-yl}piperidin-1-yl)-1H-indole-3-carbonitrile]
4 nM	80%	17 nM	82%	N#Cc1c[nH]c2c(N3CCC(NC(=O)c4ccc(N5CCC(CN6Cc7cc8c(cc7C6)C(=O)N(C6CCC(=O)NC6=O)C8=O)CC5)cc4F)CC3)ccc(Cl)c12 (stereo not drawn) [Example 155, N-[1-(4-Chloro-3-cyano-1H-indol-7-yl)piperidin-4-yl]-4-(4-{[6-(2,6-dioxopiperidin-3-yl)-5,7-dioxo-3,5,6,7-tetrahydropyrrolo[3,4-f]isoindol-2(1H)-yl]methyl}piperidin-1-yl)-2-fluorobenzamide]
5 nM	95%	8 nM	94%	COc1nc(N2CCN(CCC3CCN(c4ccc(C5CCN(c6ccc(Cl)c7c(C#N)c[nH]c67)CC5)cc4)CC3)CC2)cc2c1C(=O)N(C1CCC(=O)NC1=O)C2 (stereo not drawn) [Example 87, 4-Chloro-7-(4-{4-[4-(2-{4-[2-(2,6-dioxopiperidin-3-yl)-4-methoxy-3-oxo-2,3-dihydro-1H-pyrrolo[3,4-c]pyridin-6-yl]piperazin-1-yl}ethyl)piperidin-1-yl]phenyl}piperidin-1-yl)-1H-indole-3-carbonitrile]
> 3000 nM		> 3000 nM		N#Cc1c[nH]c2c(C3CCCN(c4ccc(C5CCN(CC6CCN(c7ccc8c(c7)CN(C7CCC(=O)NC7=O)C8=O)CC6)CC5)cc4)C3)ccc(Cl)c12 (single isomer, unassigned) [Example 97, 4-Chloro-7-[(3S*)-1-{4-[1-({1-[2-(2,6-dioxopiperidin-3-yl)-1-oxo-2,3-dihydro-1H-isoindol-5-yl]piperidin-4-yl}methyl)piperidin-4-yl]phenyl}piperidin-3-yl]-1H-indole-3-carbonitrile]
9 nM	97%	9 nM	101%	Cn1c(=O)n(C2CCC(=O)NC2=O)c2cccc(CN3CCN(CC4CCN(c5ccc(C6CCN(c7ccc(Cl)c8c(C#N)c[nH]c78)CC6)cc5)CC4)CC3)c21 (stereo not drawn) [Example 70, 4-Chloro-7-[4-(4-{4-[(4-{[1-(2,6-dioxopiperidin-3-yl)-3-methyl-2-oxo-2,3-dihydro-1H-benzimidazol-4-yl]methyl}piperazin-1-yl)methyl]piperidin-1-yl}phenyl)piperidin-1-yl]-1H-indole-3-carbonitrile]
29 nM	101%	449 nM	89%	N#Cc1c[nH]c2c(N3CCC(c4ccc(C(=O)N5CCC(CN6CCN(c7cc8c(cc7F)C(=O)N(C7CCC(=O)NC7=O)C8=O)CC6)CC5)cc4)CC3)ccc(Cl)c12 (stereo not drawn) [Example 100, 4-Chloro-7-(4-{4-[4-({4-[2-(2,6-dioxopiperidin-3-yl)-6-fluoro-1,3-dioxo-2,3-dihydro-1H-isoindol-5-yl]piperazin-1-yl}methyl)piperidine-1-carbonyl]phenyl}piperidin-1-yl)-1H-indole-3-carbonitrile]

Second part, the compound before the results:

Structure (SMILES)	DC50 [1]	Dmax [1]	DC50 [2]	Dmax [2]
Cc1ccc(N2CCC(c3ccc(N4CCC(CN5CCC(n6ccc7c(N8CCC(=O)NC8=O)cccc76)CC5)CC4)cc3)CC2)c2[nH]cc(C#N)c12 [Example 8, 7-(4-{4-[4-({4-[4-(2,4-Dioxo-1,3-diazinan-1-yl)-1H-indol-1-yl]piperidin-1-yl}methyl)piperidin-1-yl]phenyl}piperidin-1-yl)-4-methyl-1H-indole-3-carbonitrile]	29 nM	99%	103 nM	96%
COc1nc(N2CCN(CCCCOc3ccc(C4CCN(c5ccc(C)c6c(C#N)c[nH]c56)CC4)cc3)CC2)cc2c1C(=O)N(C1CCC(=O)NC1=O)C2 (stereo not drawn) [Example 31, 7-{4-[4-(4-{4-[2-(2,6-Dioxopiperidin-3-yl)-4-methoxy-3-oxo-2,3-dihydro-1H-pyrrolo[3,4-c]pyridin-6-yl]piperazin-1-yl}butoxy)phenyl]piperidin-1-yl}-4-methyl-1H-indole-3-carbonitrile]	8 nM	94%	22 nM	88%
COc1cc(N2CCN(CC3CCN(c4ccc(C5CCN(c6ccc(C)c7c(C#N)c[nH]c67)CC5)cc4)CC3)CC2)cc2c1C(=O)N(C1CCC(=O)NC1=O)C2 (stereo not drawn) [Example 15, 7-(4-{4-[4-({4-[2-(2,6-Dioxopiperidin-3-yl)-7-methoxy-1-oxo-2,3-dihydro-1H-isoindol-5-yl]piperazin-1-yl}methyl)piperidin-1-yl]phenyl}piperidin-1-yl)-4-methyl-1H-indole-3-carbonitrile]	9 nM	97%	24 nM	85%
Cc1ccc(N2CCC(c3ccc(OCCCCN4CCN(c5ccc6c(c5)CN(C5CCC(=O)NC5=O)C6=O)CC4)cc3)C2)c2[nH]cc(C#N)c12 (single isomer, unassigned) [Example 150, 7-{(3S*)-3-[4-(4-{4-[2-(2,6-Dioxopiperidin-3-yl)-1-oxo-2,3-dihydro-1H-isoindol-5-yl]piperazin-1-yl}butoxy)phenyl]pyrrolidin-1-yl}-4-methyl-1H-indole-3-carbonitrile]	14 nM	82%	893 nM	50%
COc1cc(N2CCN(CC3CCN(c4ccc(C5CCN(c6ccc(Cl)c7c(C#N)c[nH]c67)CC5)cc4)CC3)CC2)cc2c1C(=O)N(C1CCC(=O)NC1=O)C2 (stereo not drawn) [Example 7, 4-Chloro-7-(4-{4-[4-({4-[2-(2,6-dioxopiperidin-3-yl)-7-methoxy-1-oxo-2,3-dihydro-1H-isoindol-5-yl]piperazin-1-yl}methyl)piperidin-1-yl]phenyl}piperidin-1-yl)-1H-indole-3-carbonitrile]	9 nM	98%	14 nM	101%
COc1cc(N2CCN(CCCCOc3ccc(C4CCN(c5ccc(C)c6c(C#N)c[nH]c56)CC4)cc3)CC2)cc2c1C(=O)N(C1CCC(=O)NC1=O)C2 (stereo not drawn) [Example 27, 7-{4-[4-(4-{4-[2-(2,6-Dioxopiperidin-3-yl)-7-methoxy-1-oxo-2,3-dihydro-1H-isoindol-5-yl]piperazin-1-yl}butoxy)phenyl]piperidin-1-yl}-4-methyl-1H-indole-3-carbonitrile]	14 nM	99%	27 nM	75%
Cc1ccc(N2CCC(c3ccc(OCCCCN4CCC(n5ccc6c(N7CCC(=O)NC7=O)cccc65)CC4)cc3)CC2)c2[nH]cc(C#N)c12 [Example 29, 7-{4-[4-(4-{4-[4-(2,4-Dioxo-1,3-diazinan-1-yl)-1H-indol-1-yl]piperidin-1-yl}butoxy)phenyl]piperidin-1-yl}-4-methyl-1H-indole-3-carbonitrile]	79 nM	94%	60 nM	74%
